Where a SMILES comes first, the peptide text is derived from it. The star is where a group is joined. X1 = CCCCCCCCCCCCCCNC(=O)OC[C@H](C*)OC(=O)NCCCCCCCCCCCCCC; Palmitoyl = CCCCCCCCCCCCCCCC(=O)*

Test [1] in a line: Antigen deposition (OVA-AF647) in draining lymph nodes. The test is classed as in vivo, mice. The settings on record: OVA-AF647 25 µg per mouse s.c. with 2 nmol per mouse, 24 h; vs OVA alone or OVA with Pam3. The protocol:
Wild-type mice were s.c. injected with OVA-AF647 alone (25 µg per mouse; Molecular Probes O-34784), or mixtures of OVA-AF647 with SUP3 (2 nmol per mouse) or Pam3 (2 nmol per mouse) at groin. Inguinal lymph nodes were isolated 24 h post-injection, and then immune cells were analyzed by flow cytometry.
Figure 6 SUP3 enhanced antigen deposition in draining lymph nodes. Mice were immunized at groin by s.c. injection of ovalbumin (OVA)-Alexa Fluor 647 (AF647) (25 µg per mouse) with or without SUP3 (2 nmol per mouse) or Pam3 (2 nmol per mouse) for 24 h. Inguinal lymph nodes were isolated, and immune cells were analyzed for levels of AF647 fluorescence by flow cytometry (A). The number of OVA-AF647 positive cells was calculated in (B). Representative data were from two independent experiments with three mice in each group.

Test [2] can be described thus: TD antigen (NP-KLH) immunization and antibody titer analysis. Conditions: NP-KLH 5 µg per mouse i.p. with 2 nmol per mouse; serum ELISA weekly; vs Pam3. The test is classed as in vivo, mice. The procedure: Thymus-dependent antigen immunization and antibody titer analysis were performed as previously described ([43]). Briefly, wild-type (WT) mice were immunized by i.p. injection of TD antigen nitrophenyl-keyhole limpet hemocyanin (NP-KLH, 5 µg per mouse; Biosearch Technologies N-5060) alone, or mixed with SUP3 (2 nmol per mouse), Pam3 (2 nmol per mouse), or alum (3 µg per mouse; Thermo 77161). Serum was harvested every week, and nitrophenyl-specific IgM and IgG were determined by ELISA. IgM and total IgG were captured by nitrophenyl 30mer (Biosearch Technologies N-5050H), and high affinity IgG was captured by nitrophenyl 8mer (Biosearch Technologies N-5050L) pre-coated ELISA plates (Corning 9018).
Figure 5 SUP3 enhanced antigen presentation ability of CD11b^+ conventional dendritic cells (cDCs) and production of antibodies against thymus-dependent (TD) antigens. […] Three days after immunization, division of OT-II CD4^+ T cells from inguinal lymph nodes were analyzed by flow cytometry (B). Absolute numbers of proliferated OT-II CD4^+ T cells were calculated in (C). […] Cells were then thoroughly washed and cocultured with CFSE-stained OT-II CD4^+ T cells for 4 days and analyzed by flow cytometry. (D) The division of OT-II cells was measured by reduced level of CFSE-labeling. (E) Absolute numbers of proliferated T cells from (D) were calculated. […]
On the technique in general: ELISA stands for enzyme-linked immunosorbent assay.

With `CCCCCCCCCCCCCCCC(=O)N[C@@H](CSC[C@@H](COC(=O)NCCCCCCCCCCCCCC)OC(=O)NCCCCCCCCCCCCCC)C(=O)NCC(=O)N[C@@H](CCCCN)C(=O)N[C@@H](CCCCN)C(=O)N[C@@H](CCCCN)C(=O)O` [SUP3, (2S,5S,8S,14R,18R)-2,5,8-tris(4-aminobutyl)-4,7,10,13,21-pentaoxo-14-palmitamido-18-((tetradecylcarbamoyl)oxy)-20-oxa-16-thia-3,6,9,12,22-pentaazahexatriacontan-1-oic acid] (Palmitoyl-C(X1)GKKK-OH), the “numbers of antigen-containing CD8+ cDCs, CD11b+ cDCs, macrophages, and monocytes in inguinal lymph nodes” value in test [1] is listed as “increased numbers”. Also, the “titers of TD antigen-specific antibodies (IgM, total IgG, high affinity IgG)” value in test [2] was “higher titers”.

The values above are taken from paper PMC5318439, “The Novel Toll-Like Receptor 2 Agonist SUP3 Enhances Antigen Presentation and T Cell Activation by Dendritic Cells” (Frontiers in Immunology, 2017).
